According to patent EP3444615A1, “METHODS AND COMPOSITIONS FOR DIAGNOSTIC EVALUATION AND THERAPEUTIC CORRECTION OF THE NO-HAEM SIGNALLING PATHWAY(S) IN ANIMALS AND HUMANS” (Freiberg Instruments GmbH, priority 2017, dated 2019):

Legend:
[1] = molecular target: T1, isolated sGC (Bos taurus, UniProt P16068); details: bare ferrohaem, in contrast to NO-ferrohaem; cited from earlier work
T1 construct: host or cells: bovine lung (from a cited title)
T1 sequence (P16068 1-619): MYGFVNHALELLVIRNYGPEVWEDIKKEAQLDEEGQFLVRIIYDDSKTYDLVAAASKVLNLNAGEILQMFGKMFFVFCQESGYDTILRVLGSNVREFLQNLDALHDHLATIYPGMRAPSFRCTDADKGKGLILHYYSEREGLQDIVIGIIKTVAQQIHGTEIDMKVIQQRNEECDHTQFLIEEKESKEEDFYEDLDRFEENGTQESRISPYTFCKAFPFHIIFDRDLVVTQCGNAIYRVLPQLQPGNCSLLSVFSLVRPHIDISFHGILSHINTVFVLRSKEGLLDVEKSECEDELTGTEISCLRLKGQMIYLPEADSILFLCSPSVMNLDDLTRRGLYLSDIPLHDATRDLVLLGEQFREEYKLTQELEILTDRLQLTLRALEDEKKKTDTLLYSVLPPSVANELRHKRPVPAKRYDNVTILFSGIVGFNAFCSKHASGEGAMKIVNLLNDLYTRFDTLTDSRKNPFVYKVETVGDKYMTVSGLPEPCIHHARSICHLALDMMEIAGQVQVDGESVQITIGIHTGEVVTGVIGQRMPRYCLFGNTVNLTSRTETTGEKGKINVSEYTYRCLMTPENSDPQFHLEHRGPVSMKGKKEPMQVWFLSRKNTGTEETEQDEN
T1 sequence (P19687 1-691 partner): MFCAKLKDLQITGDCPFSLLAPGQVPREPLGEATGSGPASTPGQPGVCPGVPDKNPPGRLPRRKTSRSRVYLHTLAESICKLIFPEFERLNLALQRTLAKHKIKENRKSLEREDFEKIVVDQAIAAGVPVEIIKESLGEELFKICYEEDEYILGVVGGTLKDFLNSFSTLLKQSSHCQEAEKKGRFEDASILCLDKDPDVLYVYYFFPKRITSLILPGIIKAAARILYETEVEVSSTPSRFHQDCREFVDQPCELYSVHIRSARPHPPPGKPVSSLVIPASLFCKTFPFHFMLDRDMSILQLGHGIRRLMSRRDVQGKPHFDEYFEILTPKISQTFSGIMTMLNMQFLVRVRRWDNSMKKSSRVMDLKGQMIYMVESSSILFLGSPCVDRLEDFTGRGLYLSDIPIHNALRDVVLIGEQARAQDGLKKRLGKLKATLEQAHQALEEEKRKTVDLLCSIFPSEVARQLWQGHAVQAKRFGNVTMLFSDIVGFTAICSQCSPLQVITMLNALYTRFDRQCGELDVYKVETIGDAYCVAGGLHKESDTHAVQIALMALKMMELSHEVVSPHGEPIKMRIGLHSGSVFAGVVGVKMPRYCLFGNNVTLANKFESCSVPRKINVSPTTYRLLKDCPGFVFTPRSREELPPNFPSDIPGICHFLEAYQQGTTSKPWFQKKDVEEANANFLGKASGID

[2] = tested on: anesthetized rats; test: blood pressure after intravenous bolus injection; format: in vivo; details: 10 nmol/kg
[3] = tested on: human platelet-rich plasma (PRP); test: U46619-induced platelet aggregation in platelet-rich plasma (aggregometer); format: cell-based
Procedure: Human venous blood was collected into a plastic polypropylene syringe containing sodium citrate. […] Platelet-rich-plasma (PRP) was prepared by centrifugation of the blood at 180g for 10 minutes at room temperature. The cloudy supernatant containing platelets was carefully removed with a pipette and transferred into a clean polypropylene tube and capped. Platelets were used for the experiments within 3 hr after blood collection. Platelet function studies were performed using a Dual Channel Aggregometer (Chronolog, Havertown). The PRP was adjusted to a platelet count of 200-300x 10^6/ml. Platelet aggregation was induced by the addition of a synthetic thromboxane A2 receptor agonist, U46619 (Cayman Chemical, Ann Arbor). PRP was placed in the aggregometer cuvette and continuously stirred at the rate of 1000 rpm. Platelet aggregation was determined by measuring the change in the optical density after addition of 1µM U46619. […]

[4] = tested on: mouse femoral artery; test: isometric tension study, wire myograph, pre-contracted artery rings; details: Fig. 7
Procedure: For the pilot experiment a male Swiss mouse (35 g) was sacrificed under ether anaesthesia. Femoral artery was isolated and cleaned from the adhering fat and connective tissue. Artery rings (2 mm) with endothelium were mounted in the organ chambers filled with Krebs solution continuously bubbled with 95% 02/ 5% CO2 at 37°C. The composition of the solution was as following: 119 mM NaCl, 4.7 mM KCI, 14.9 mM NaHCO3, 1.2 mM MgSO4.7H2O, 2.5 mM CaCl2, 1.18 mM KH2PO4, and 5.5 mM glucose; pH 7.4. Vascular reactivity was measured by the monitoring the changes in isometric tension using a wire myograph (Danish Myo Technology, Arhus, Denmark). After pre-contraction of arterial rings with 1µM 5-HT (serotonin; Sigma-Aldrich), the cumulative concentrations of NO-ferrohaem were added. In the end of experiment, an inhibitor of the soluble guanylate cyclase (ODQ; 1µM) was added.

[5] = tested on: anesthetized Wistar rat; test: blood pressure study, subcutaneous injection; format: in vivo; details: after injection of sGC inhibitor methylene blue; Fig. 8
Procedure: For the pilot experiment, a male Wistar rat weighing 350g from Janvier Labs (Le Genest-Saint-Isle, France) was used. Rat was anaesthetised with isoflurane 1-2% (Baxter S.A.S, Maurepas, France) and analgesia was ensured by sufentanil (Mylan, Pittsburgh PA, USA) (0.1 µg/kg of body weight) administered subcutaneously. Animal was tracheotomised and lungs ventilated throughout the experiment. The ventilator (Harvard Rodent Ventilator 683, Harvard Instruments, South Natick, MA, USA) was set to maintain a PaCO2 of 40 mmHg and oxygen was added to maintain a PaO2 of 100 mmHg. The left femoral artery was used to measure mean arterial pressure (MAP) and heart rate (HR). The rectal temperature was continuously monitored. The NO-ferrohaem was injected at dose 2µmol/kg (s.c.) before and after the injection of methylene blue (1 µmol/kg; s.c.). In the end of experiment rat was euthanized using the lethal dose of Pentothal (100 mg/kg; i.v.).

[6] = tested on: isolated rat mesenteric arteries; test: vasodilation in isolated mesenteric arteries

| Structure (SMILES) | effect on basal activity of isolated sGC [1] | blood pressure effect [2] | U46619-induced platelet aggregation ([3]; 1 nM, 10nM or 100nM added 30 seconds before 1µM U46619, Fig. 6) | inhibition of thromboxane-induced platelet aggregation ([3]; at low nM concentrations, human platelet-rich plasma) | relaxation of pre-contracted arteries ([4]; 5-HT (1µM)-pre-contracted, 100nM-100µM concentration range) | effect of ODQ on the NO-ferrohaem-induced relaxation ([4]; plus sGC inhibitor ODQ (1µM)) | effect of methylene blue on hypotensive activity [5] | vasodilating activity [6] |
| --- | --- | --- | --- | --- | --- | --- | --- | --- |
| C=Cc1c(C)c2[n]3c1C=C1N=C(C=C4N=C(C=c5c(C)c(C=C)c([n]5[Fe]3)=C2)C(C)=C4CCC(=O)O)C(CCC(=O)O)=C1C [ferrohaem] | inhibits the basal activity of isolated sGC | – | – | – | – | – | – | – |
| C=Cc1c(C)c2[n]3c1C=C1N=C(C=C4N=C(C=c5c(C)c(C=C)c([n]5[Fe]3[N]=O)=C2)C(C)=C4CCC(=O)O)C(CCC(=O)O)=C1C [NO-ferrohaem, nitrosylated ferrous protoporphyrin IX] | – | sGC-inhibitor-sensitive hypotension | concentration-dependently prevented the aggregation | efficiently inhibits | concentration-dependent relaxation | completely reversed | prevented this NO-ferrohaem activity | direct long-lasting vasodilating activity |
